The nature of data set [1]: Induction of superoxide anion radical production in aqueous solution assessed as increase in fluorescence intensity at 5 uM under photoirradiation with 550nm and 10 J/cm^2 LED light and measured after 8 mins by DHR123 based fluorescence spectroscopic analysis.
Data set [2] deals with MDA-MB-231. Description: Induction of intracellular ROS generation in human MDA-MB-231 cells assessed as fold increase in intracellular ROS level at 2.5 uM incubated for 2 hrs followed by under photoirradiation with 500 to 700nm and 12 J/cm^2 LED light by DCFH-DA staining based fluorometric analysis relative dark control group. In kind it is functional.
Data set [3] is described as follows: Drug uptake in human MDA-MB-231 cells assessed as increase in intracellular uptake at 5 uM incubated for 2 hrs by flow cytometry analysis. The following applies: mda-mb-231, 2 h. In kind it is ADME, cell-based.
The test system of data set [4] is 4T1. Nature of the data set: Anticancer activity against mouse 4T1 cells assessed as reduction in cell viability incubated for 24 hrs in presence of irradiation with 500 to 700nm and 12 J/cm^2 LED light by CCK-8 assay. The following applies: 4T1, light or radiation study. In kind it is functional, cell-based.
In data set [5] the test system is MDA-MB-231. Description: Anticancer activity against human MDA-MB-231 cells assessed as reduction in cell viability incubated for 24 hrs in presence of irradiation with 500 to 700nm and 12 J/cm^2 LED light by CCK-8 assay. It is filed as functional, cell-based. The following applies: MDA-MB-231, light or radiation study.
Data set [6] has as its system MDA-MB-231. Description: Anticancer activity against human MDA-MB-231 cells assessed as reduction in cell viability incubated for 24 hrs by CCK-8 assay. It is filed as functional, cell-based. The conditions noted are these: MDA-MB-231, 24 h.
Data set [7] has as its system 4T1. Description: Anticancer activity against mouse 4T1 cells assessed as fold increase in gamma-H2A.X protein expression at 1 uM preincubated for 2 hrs followed by photoirradiation with 500 to 700nm and 12 J/cm^2 LED light and measured after 24 hrs by Western blot analysis relative to control. In kind it is functional. The conditions noted are these: time 26 hrs.
The nature of data set [8]: Induction of singlet oxygen production in ethanol assessed as change in absorption spectra at 380nm under photoirradiation with 550nm and 10 J/cm^2 LED light for 2 to 20 mins by ABDA based microplate reader analysis. In kind it is functional. The following applies: time 2-20 min.
Data set [9] relates to 4T1. Nature of the data set: Anticancer activity against mouse 4T1 cells assessed as reduction in cell viability at 1 uM incubated for 24 hrs under photoirradiation with 500 to 700nm and 12 mW/cm^2 LED light by CCK-8 assay. In kind it is functional, cell-based.
Data set [10] relates to MDA-MB-231. Description: Anticancer activity against human MDA-MB-231 cells assessed as reduction in cell viability at 1 uM incubated for 24 hrs in presence of irradiation with 500 to 700nm and 12 J/cm^2 LED light by CCK-8 assay. It is filed as functional, cell-based.
Data set [11] deals with 4T1. Nature of the data set: Anticancer activity against mouse 4T1 cells assessed as fold increase in cleaved caspase-3 protein expression at 1 uM preincubated for 2 hrs followed by photoirradiation with 500 to 700nm and 12 J/cm^2 LED light and measured after 24 hrs by Western blot analysis relative to control. The following applies: time 26 hrs. It is filed as functional.

For data set [12], the system named is MDA-MB-231. Description: Phototoxicity against human MDA-MB-231 cells assessed as reduction in cell viability incubated for 24 hrs in presence of irradiation with 500 to 700nm and 12 J/cm^2 LED light by CCK-8 assay. It is filed as functional, cell-based.
The nature of data set [13]: Drug localization in lysosome of human MDA-MB-231 cells assessed as increase in apparent yellow fluorescent signal at 5 uM incubated for 2 hrs by Lyso-Tracker Green, ER-Tracker Green, Mito-Tracker Green and Hoechst 33342 staining based confocal laser scanning microscopy. It is filed as ADME, subcellular. The conditions noted are these: mda-mb-231, 2 h.
Data set [14] can be described thus: Drug uptake in human MDA-MB-231 cells assessed as increase in intracellular uptake at 5 uM incubated for 10 mins by flow cytometry analysis. It is filed as ADME, cell-based. The following applies: mda-mb-231, 10 min.
Data set [15] is described as follows: Photostability of compound in EtOH assessed as compound decomposition at 50 uM incubated for 5 to 20 mins under photoirradiation with 550nm and 10 J/cm^2 LED light by UV-visible spectroscopic analysis. It is filed as physicochemical. The following applies: time 5-20 min.
Data set [16] can be described thus: Stability of compound in GSH at 10 uM incubated for 30 mins by fluorescence assay. It is filed as physicochemical. The following applies: 0.5 h.
Data set [17] is described as follows: Induction of singlet oxygen production in ethanol assessed as singlet oxygen quantum yield at 410nm under photoirradiation with 550nm and 10 mW/cm^2 LED light for 10 to 80 secs by DPBF based microplate reader analysis. It is filed as functional. The conditions noted are these: time 10-80 sec.
Data set [18] relates to 4T1. Description: Anticancer activity against mouse 4T1 cells assessed as reduction in cell viability preincubated for 12 hrs followed by photoirradiation with 500 to 700nm and 12 J/cm^2 LED light for 24 hrs by CCK-8 assay. In kind it is functional, cell-based. The following applies: 4T1, light or radiation study.
The nature of data set [19]: Drug metabolism in carboxylesterase (unknown origin) assessed as formation of active photosensitizer 6-amino-5-iodo-1H-phenalen-1-one by measuring increase in fluorescence at 610nM at 10 uM under by fluorescence assay. In kind it is ADME. The conditions noted are these: human.
The subject of data set [20] is MDA-MB-231. Description: Anticancer activity against human MDA-MB-231 cells assessed as number of dead cells at 2.5 uM incubated for 12 hrs by calcein-AM and propidium iodide staining based flow cytometry. In kind it is functional, cell-based.
Data set [21] has as its system MDA-MB-231. Description: Anticancer activity against human MDA-MB-231 cells assessed as reduction in cell viability at 0.01 to 10 uM incubated for 24 hrs by CCK-8 assay. It is filed as functional, cell-based. The conditions noted are these: dose 0.01-10 µM.
The nature of data set [22]: Stability of compound in gamma-glutamyl transpeptidase at 10 uM incubated for 30 mins by fluorescence assay. The conditions noted are these: 0.5 h. In kind it is physicochemical.
Data set [23] has as its system MDA-MB-231. Description: Anticancer activity against human MDA-MB-231 cells assessed as number of dead cells at 2.5 uM preincubated for 12 hrs followed by photoirradiation with 500 to 700nm and 12 J/cm^2 LED light for 10 mins by calcein-AM and propidium iodide staining based flow cytometry. In kind it is functional, cell-based. The following applies: time 12.2 hrs.

The subject of data set [24] is MDA-MB-231. Nature of the data set: Anticancer activity against human MDA-MB-231 cells assessed as reduction in cell viability preincubated for 12 hrs followed by photoirradiation with 500 to 700nm and 12 J/cm^2 LED light for 24 hrs by CCK-8 assay. In kind it is functional, cell-based. The following applies: MDA-MB-231, light or radiation study.
The nature of data set [25]: Drug metabolism in carboxylesterase (unknown origin) assessed as formation of active photosensitizer 6-amino-5-iodo-1H-phenalen-1-one at 10 uM under by LC-MS/MS analysis assay. The following applies: human. In kind it is ADME.
The nature of data set [26]: Drug metabolism in human MDA-MB-231 cells assessed as increase in SR expression at 5 uM incubated for 12 hrs by flow cytometry analysis. In kind it is ADME, cell-based. The conditions noted are these: mda-mb-231, 12 h.
A short description of data set [27]: Stability of compound in various pH. It is filed as physicochemical.
Data set [28] deals with 4T1. Nature of the data set: Anticancer activity against mouse 4T1 cells assessed as reduction in cell viability at 0.01 to 10 uM incubated for 24 hrs by CCK-8 assay. It is filed as functional, cell-based. The following applies: dose 0.01-10 µM.
A short description of data set [29]: Stability of compound in H2O2 at 10 uM incubated for 30 mins by fluorescence assay. It is filed as physicochemical. The conditions noted are these: 0.5 h.

The text below walks through data of ChEMBL document CHEMBL5321227, “Lysosome-targeting phenalenones as efficient type I/II photosensitizers for anticancer photodynamic therapy” (Eur J Med Chem, 2023).

The source made the active and inactive calls. The rule behind the calls is not given here. Bounds are passed on as bounds.

With `Nc1c(I)cc2c3c(cccc13)C(=O)C=C2`, the outcome (in data set [1]; in data set [8]; in the data set with 4T1 [9]; in the data set with MDA-MB-231 [10]; in the data set with MDA-MB-231 [12]) was Active. The “fold change (FC)” value was determined as 5.54 in the data set with MDA-MB-231 [2], 2.36 in the data set with 4T1 [7] and 3.09 in the data set with 4T1 [11]. Also, the Drug uptake entry in data set [3], in data set [13] and in data set [14] was “Active” throughout. Also, the concentration for half-maximal inhibition (IC50) with 4T1 [4] was 0.59 µM; with MDA-MB-231 [5] it was 0.66 µM; in the data set with MDA-MB-231 [6] it was over 50 µM. In addition, the Stability entry in data set [15] is “Stable”.
As for `Nc1ccc2c3c(cccc13)C(=O)C=C2`, the result in data set [8] was inactive.
For `O=C(Nc1c(I)cc2c3c(cccc13)C(=O)C=C2)c1ccccc1`, the Stability entry in data set [16], in data set [22], in data set [27], in [29] and in [15] was “Stable” throughout. The Activity in [17] stood at 0.1. In addition, the half-inhibitory concentration (IC50) in the data set with 4T1 [18] came to 4.8 µM; in the data set with MDA-MB-231 [24], 4 µM. The Drug metabolism entry in data set [19], in data set [25] and in [26] was “Metabolite_Detected” in each case. For the same molecule, the result in the data set on MDA-MB-231 [20] was inactive. Further, the outcome in the data set with MDA-MB-231 [21], with MDA-MB-231 [23] and in the data set with 4T1 [28] was Active.
